According to ChEMBL document CHEMBL1201862, “PubChem BioAssay data set” (2004):
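1) Cells in 96-well plates. 2) Compound, 48 h, 5 concentrations. 3) Linear interpolation between surrounding doses. 4) Unreached endpoint = highest concentration. GI50 is the concentration that inhibits growth by half.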 Calls of active or inactive are those of the source. Cut-off read from the data, not from the text of the source: active = GI50 up to about 1.1 µM and inactive = higher.

What was measured:
Assay in all cases: DTP human tumour cell line panel, 48 h
MOLT-4 = test system: MOLT-4
SF-268 = test system: SF-268
SK-MEL-28 = test system: SK-MEL-28
HT-29 = test system: HT-29
Malme-3M = test system: Malme-3M
SK-OV-3 = test system: SK-OV-3
HOP-62 = test system: HOP-62
IGROV-1 = test system: IGROV-1
OVCAR-3 = test system: OVCAR-3
SW-620 = test system: SW-620
UO-31 = test system: UO-31
SK-MEL-2 = test system: SK-MEL-2
MDA-MB-231 = test system: MDA-MB-231
SNB-19 = test system: SNB-19
MCF7 = test system: MCF7
HCC 2998 = test system: HCC 2998
HCT-15 = test system: HCT-15
T47D = test system: T47D
786-0 = test system: 786-0

Row | Structure (SMILES) | GI50 (MOLT-4) | GI50 (SF-268) | GI50 (SK-MEL-28) | GI50 (HT-29) | GI50 (Malme-3M) | GI50 (SK-OV-3) | GI50 (HOP-62) | GI50 (IGROV-1) | GI50 (OVCAR-3) | GI50 (SW-620) | GI50 (UO-31) | GI50 (SK-MEL-2) | GI50 (MDA-MB-231) | GI50 (SNB-19) | GI50 (MCF7) | GI50 (HCC 2998) | GI50 (HCT-15) [µM] | GI50 (T47D) | GI50 (786-0)
1 | N=C(N)NCCNC(=N)N | > 100 µM (inactive) | > 100 µM (inactive) | > 100 µM (inactive) | > 100 µM (inactive) | 37.5 µM (inactive) | > 100 µM (inactive) | > 100 µM (inactive) | > 100 µM (inactive) | > 100 µM (inactive) | > 100 µM (inactive) | > 100 µM (inactive) | > 100 µM (inactive) | > 100 µM (inactive) | > 100 µM (inactive) | > 100 µM (inactive) | > 100 µM (inactive) | > 100 | 84.3 µM (inactive) | > 100 µM (inactive)
2 | C/C=C/[C@@H]1O[C@H](CC#C[Si](C)(C)C)[C@@]2(C=O)C(C)=CC[C@H](C(C)C)[C@@H]12 | 1.93 µM (inactive) | 23.8 µM (inactive) | 20.3 µM (inactive) | 19.5 µM (inactive) | 19 µM (inactive) | 80.4 µM (inactive) | 25.4 µM (inactive) | 2.82 µM (inactive) | 18.6 µM (inactive) | 23.2 µM (inactive) | 1.61 µM (inactive) | 16.5 µM (inactive) | 17.3 µM (inactive) | 23.8 µM (inactive) | 22.5 µM (inactive) | 18.2 µM (inactive) | 21.1 | 30.8 µM (inactive) | 13.7 µM (inactive)
3 | CCN(CC)Cc1cc(/N=N\c2c(O)ccc3c(/N=N\c4ccc(O)c(CN(CC)CC)c4)c(O)ccc23)ccc1O | 1.13 µM (inactive) | 4.56 µM (inactive) | 5.96 µM (inactive) | 2.57 µM (inactive) | 4.5 µM (inactive) | 2.77 µM (inactive) | 2.79 µM (inactive) | 2.99 µM (inactive) | 3.73 µM (inactive) | 3.29 µM (inactive) | 2 µM (inactive) | 12.6 µM (inactive) | 2.05 µM (inactive) | 3.86 µM (inactive) | 2.39 µM (inactive) | 1.71 µM (inactive) | 1.68 | 10.3 µM (inactive) | 1.87 µM (inactive)
4 | CCCC1(CCC)c2cc(/C=N\O)ccc2-c2ccc(-c3ccc(C(C)(C)C)cc3)cc21 | 23.4 µM (inactive) | 56 µM (inactive) | 26.7 µM (inactive) | > 100 µM (inactive) | > 100 µM (inactive) | > 100 µM (inactive) | > 100 µM (inactive) | 61.9 µM (inactive) | 22.9 µM (inactive) | 34.2 µM (inactive) | > 100 µM (inactive) | 29 µM (inactive) | 19.5 µM (inactive) | > 100 µM (inactive) | 25.6 µM (inactive) | 42.6 µM (inactive) | > 100 | 57.5 µM (inactive) | 37.4 µM (inactive)
5 | Cc1nc2ccc(Cl)cc2c2c1CCS2 | 19.5 µM (inactive) | 56.5 µM (inactive) | > 100 µM (inactive) | 41.8 µM (inactive) | 90.2 µM (inactive) | > 100 µM (inactive) | > 100 µM (inactive) | 47.8 µM (inactive) | 47.8 µM (inactive) | > 100 µM (inactive) | 4.09 µM (inactive) | 57.9 µM (inactive) | 49.2 µM (inactive) | > 100 µM (inactive) | 33.3 µM (inactive) | 77.4 µM (inactive) | > 100 | > 100 µM (inactive) | 66.4 µM (inactive)
6 | O=C(CN1CCN(C(=O)OCc2ccccc2)CCN(CC(=O)N2CCCCC2)CCN(C(=O)OCc2ccccc2)CC1)N1CCCCC1 | 7.41 µM (inactive) | 15.8 µM (inactive) | 14.7 µM (inactive) | 7.46 µM (inactive) | 8.38 µM (inactive) | 27.7 µM (inactive) | 19.5 µM (inactive) | 10.3 µM (inactive) | 10.7 µM (inactive) | 19.6 µM (inactive) | 3.19 µM (inactive) | 19.5 µM (inactive) | 14.2 µM (inactive) | 19.7 µM (inactive) | 17.1 µM (inactive) | 11.2 µM (inactive) | 17.9 | 17 µM (inactive) | 13.8 µM (inactive)
7 | O=C1CSC(c2ccccc2O)N1c1ccc(-n2c(-c3ccccc3)nc3ccccc3c2=O)cc1 (stereo not drawn) | 13.2 µM (inactive) | 50.1 µM (inactive) | 28.4 µM (inactive) | 27.1 µM (inactive) | 22.2 µM (inactive) | 23.7 µM (inactive) | 20.6 µM (inactive) | 25.5 µM (inactive) | 14.6 µM (inactive) | 29.7 µM (inactive) | 18.9 µM (inactive) | 24.3 µM (inactive) | 4.76 µM (inactive) | 27.3 µM (inactive) | 28.1 µM (inactive) | 28.5 µM (inactive) | 6.84 | 14.9 µM (inactive) | 20.1 µM (inactive)
